Source: patent publication US4397858A, “Treatment of rheumatism and arteriosclerosis with n-halogenophenyl-benzisothiazoles” (A. Nattermann & Cie GmbH, priority 1980, dated 1983)

Key:
[1] = Toxicity, mice, oral (lethality); conditions: mouse, in vivo
rats [2] = assay: Granuloma test (Cotton pellet test) according to R. MEIER; format: in vivo; conditions: rat
Source text: Granuloma test (Cotton pellet test) according to R. MEIER et al. Experientia 6, 469 (1950)
In this test, cottonwool pellets impregnated with croton oil were implanted subcutaneously in the test animals (rats) to induce the formation of granulomas in the connective tissue. After the animals had been killed, the granulomas were excised and weighed moist or dry. The anti-proliferative effect of an antiphlogistic is reflected in light weights of the granulomas by comparison with untreated controls.

[3] = test system: stomach mucosa of Wistar rats; assay: Ulcer test (ulcer-inducing effect in rats); format: in vivo, Wistar rat; conditions: rat
Description: J. Toxicol. […] A bleeding stomach ulcer is induced by oral administration of the active principle. After 3.5 hours, the animals are killed, their stomachs removed, cut open along the major curvature and stretched across a Styropor plate. The frequency and extent of average ulcer formation in the test and control groups is determined.

Wistar rats = assay: Adjuvant arthritis (C. M. PEARSON), Freund's adjuvant; format: in vivo, Wistar rat; conditions: rat
Description: 3. Adjuvant arthritis (C. M. PEARSON, proc.Soc.exp.Biol. 91, 95-101 (1956)
10 Wistar rats weighing from 120 g to 150 g are used per dose. The same number of animals is used for control purposes. An arthritis is induced by the administration of 0.5 ml of Freund's adjuvant by subplantar injection. The test lasts 17 days. At the beginning of the test, the paw volume of all four extremities is determined and used as the starting value. […] For evaluation purposes, the difference between the starting volume and final volume of the paws both of the test group and of the control group is calculated and inhibition expressed as a percentage.

rats [4] = assay: Rat paw oedema test (HILLEBRECHT), carragenin; format: in vivo; conditions: 3 hours, relative to control group
Description: Determination of antiphlogistic activity by HILLEBRECHT's rat paw oedema test (J. HILLEBRECHT, Arzeim. Forsch. 1954, Vol. 4, page 607). An oedema was produced in one of the rear paws of rats weighing from 120 g to 150 g by the subplantar injection of carragenin (0.5% in a 0.9% NaCl-solution) in a quantity of 0.1 ml of solution per paw. After administration of the test substance, which generally should not exceed a volume of 10 ml per kg of body weight, the volume of the paw is determined in an overflow. After 3 hours, the final value is determined. For each dose, the test is carried out with 10 test animals and 10 control animals of one sex and repeated with the same number of animals of the other sex. For the purposes of evaluation, inhibition of the oedema is expressed as a percentage on relation to the control group.

[5] = 1.0 mg/kg p.o. (printed 1 for Indometacin)
[6] = 1 mg/kg p.o. (1.0 for Indometacin), 7th day p.i.
[7] = 1 mg/kg p.o. (1.0 for Indometacin), 14th day p.i.
[8] = 1 mg/kg p.o. (1.0 for Indometacin), 17th day p.i.

O=c1c2ccccc2sn1-c1ccc(Cl)cc1 [2-(4-chlorophenyl)-1,2-benzisothiazol-3(2H)-one]
mortality ([1]; 3 160 mg/kg p.o.): 0% | Reduction in weight of the granulomas (rats [2]; 0.1 mg/kg p.o.): -26% | Reduction in weight of the granulomas (rats [2]; [5]): -43% | Reduction in weight of the granulomas (rats [2]; 10 mg/kg p.o.): -44% | Ulcer-inducing effect ([3]; 1 mg/kg p.o., 3.5 hours): 0 | Ulcer-inducing effect ([3]; 10 mg/kg p.o., 3.5 hours): 0 | Ulcer-inducing effect ([3]; 100 mg/kg p.o., 3.5 hours): 0 | Inhibition (adjuvant arthritis, paw volume) (Wistar rats; [6]): -27% | Inhibition (adjuvant arthritis, paw volume) (Wistar rats; [7]): -44% | Inhibition (adjuvant arthritis, paw volume) (Wistar rats; [8]): -45% | Inhibition (adjuvant arthritis, paw volume) (Wistar rats; 3.2 mg/kg p.o., 7th day p.i.): -46% | Inhibition (adjuvant arthritis, paw volume) (Wistar rats; 3.2 mg/kg p.o., 14th day p.i.): -51% | Inhibition (adjuvant arthritis, paw volume) (Wistar rats; 3.2 mg/kg p.o., 17th day p.i.): -56% | Oedema inhibition (rats [4]; 0.01 mg/kg p.o.): -13% | Oedema inhibition (rats [4]; 0.1 mg/kg p.o.): -22% | Oedema inhibition (rats [4]; 1.0 mg/kg p.o.): -36%

COc1ccc2c(c1)c(CC(=O)O)c(C)n2C(=O)c1ccc(Cl)cc1 [Indometacin, 1-(p-chlorobenzoyl)-5-methoxy-2-methyl-3-indole acetic acid, reference compound]
mortality ([1]; 38 mg/kg p.o.): 50% | Reduction in weight of the granulomas (rats [2]; [5]): -21% | Reduction in weight of the granulomas (rats [2]; 3.2 mg/kg p.o.): -7% | Reduction in weight of the granulomas (rats [2]; 5.6 mg/kg p.o.): -6% | Ulcer-inducing effect ([3]; in vivo, po, 3.2 mg/kg): ++ | Ulcer-inducing effect ([3]; in vivo, po, 5.6 mg/kg): +++ | Ulcer-inducing effect ([3]; in vivo, po, 7.5 mg/kg): +++ | Inhibition (adjuvant arthritis, paw volume) (Wistar rats; 0.32 mg/kg p.o., 7th day p.i.): -20% | Inhibition (adjuvant arthritis, paw volume) (Wistar rats; 0.32 mg/kg p.o., 14th day p.i.): -26% | Inhibition (adjuvant arthritis, paw volume) (Wistar rats; 0.32 mg/kg p.o., 17th day p.i.): -33% | Inhibition (adjuvant arthritis, paw volume) (Wistar rats; [6]): -50% | Inhibition (adjuvant arthritis, paw volume) (Wistar rats; [7]): -40% | Inhibition (adjuvant arthritis, paw volume) (Wistar rats; [8]): -40% | Oedema inhibition (rats [4]; 3.8 mg/kg p.o.): -26% | Oedema inhibition (rats [4]; 5.6 mg/kg p.o.): -45%
